According to patent US12280090B2, “Antimicrobial peptides” (priority 2018, dated 2025):
Values after ≈ are worked out from the molar mass of the structure shown. Where two headings read alike, the source gives them in different places. Peptide text beside a SMILES is read from it.

Experiments:
Assay type in all cases: cell-based
[1] = system: Escherichia coli—ATCC 25922 “wild type”
Experimental: (§1) Independent experiments were conducted with four strains of E. coli, including ATCC E. coli (Escherichia coli—ATCC 25922 “wild type”); ESBL E. coli (Escherichia coli—Extended spectrum beta-lactamase); CPO E. coli (KPC) (Escherichia coli—Carbapenemase-producing organism; Klebsiella pneumoniae carbapenemase); and CPO E. coli (NDM) (Escherichia coli—Carbapenemase-producing organism; New-Dehli Metallobetalactamase).
(§2) The ATCC (American Type Culture Collection) strains received from Cedarlane. Multi drug resistant (MDR) strains, as clinical isolates, were received from the laboratory of Dr. Linda Hoang.
(§3) Putative antimicrobial peptides were synthesized by GeneScript. A-list antimicrobial peptides re-synthesized by GeneScript. P2_CCH, P5_CCH, and P5_CCH_A19K were each synthesized under two conditions: standard synthesis using TFA, and the other with TFA-removal using acetate as a counter-ion. A MIC method, adapted for use with cationic antimicrobial peptides, was used to evaluate MIC antimicrobial activity (Hancock 1999).
(§4) The following data are presented to show the activity (MIC/MBC in μg/mL) of certain antimicrobial peptides described herein relative to a modified/synthetic version having a specified substitution. While data presented in tables above may be presented again, or may be represented in data provided in the tables below, such duplication is believed to assist the reader in readily noting comparisons. Different Run Numbers noted in the following tables denotes experiments conducted on different days, with each run reflecting multiple n values.

[2] = system: Escherichia coli—Carbapenemase-producing organism; Klebsiella pneumoniae carbapenemase
Experimental: as §1, §2, §3, §4

[3] = system: Escherichia coli—Carbapenemase-producing organism; New-Dehli Metallobetalactamase
Experimental: as §1, §2, §3, §4

[4] = system: Escherichia coli—Extended spectrum beta-lactamase
Experimental: as §1, §2, §3, §4

[5] = system: Salmonella Heidelberg (MDR)
Description: as §2, §3, §4

[6] = system: Escherichia coli: ATCC 9723H; details: ATCC 9723
Experimental: (§5) Microtiter broth dilution assays. HP2, HP3, and HP5 peptides are comprised of novel sequences that have not yet been described in the AMP literature. A common method for establishing antimicrobial activity of peptides is to perform microtiter broth assays. Microtiter broth dilution methods were implemented for determination of the minimum inhibitory concentration (MIC) and minimum bactericidal concentration (MBC). HP3 and HP5 were tested in addition to Ranatuerin-1/HP4 peptide as a positive control. HP2 could not be tested because multiple peptide synthesis attempts failed. The human cathelicidin, LL-37^30 was used as an additional positive control, and an unrelated similarly sized cationic peptide from the T. pallidum protein Tp0751 was used as a negative control. The potential AMPs were tested against bacteria representative of all three types of known cell envelope (Gram-positive, negative, and the complex and unique mycobacterial cell wall/envelope), given that a major mechanism used by AMPs is cell wall/membrane targeting.
(§6) Microtiter broth dilution assays. To test for antimicrobial activity, HP3, HP4/Ranatuerin-1, and HP5, peptides were synthesized by GenScript (Piscataway, New Jersey, USA). HP2 was not tested because the service provider was unable to synthesize this peptide despite multiple attempts. An unrelated, similarly-sized peptide from the Treponema pallidum protein Tp0751^55 was used as a negative control and the human cathelicidin, LL-37^30, was included as a positive control. Peptides were dissolved in filter-sterilized ultrapure water and tested for sterility by plating on non-selective agar plates followed by a 48 h incubation at 37° C. Two-fold serial dilutions of each peptide were prepared to obtain a series corresponding to ten times the required testing concentrations (2560, 1280, 640, 320, 160, 80, 40, 20, 10, and 5 μg/mL)^29.
(§7) Microtiter broth dilution methods were implemented for determination of the minimum inhibitory concentration (MIC) and minimum bactericidal concentration (MBC) of the four putative AMPs and the negative control peptide using procedures adapted from the R.E.W. Hancock Laboratory for cationic AMPs^29 and the CLSI methods for dilution antimicrobial susceptibility tests^56.
(§8) To assess antimicrobial activity across a diverse range of bacterial species, colonies were cultured overnight on Mueller Hinton agar plates (MHA; +5% sheep blood for S. pyogenes)^56 from frozen glycerol stock. Bacteria tested include Gram-negative rods (Escherichia coli: ATCC 9723H; Pseudomonas aeruginosa: ATCC 10148), Gram-positive cocci (Staphylococcus aureus: ATCC 6538P; Streptococcus pyogenes: unknown strain, hospital isolate), and Mycobacterium smegmatis (MC^2155; classified as neither Gram-positive nor Gram-negative). Bacterial suspensions were prepared by placing 3-5 morphologically similar colonies from the grown plate into sterile glass culture tubes containing 2 mL of Mueller Hinton Broth (MHB; +5% lysed horse blood for S. pyogenes) 56. Microbial inoculums from bacterial suspensions were prepared through a spectrophotometric adjustment of turbidity to 0.08-0.1 at 600 nm to achieve a turbidity equivalent to that of a 0.5 McFarland standard (1-2×10^8 CFU/mL)^29. The standardized bacterial inoculums were then diluted in MHB to obtain final cell densities of approximately […].
(§9) Ninety-six-well microtiter plates (Fisher Cat. No. CS003790; Nepean, Ontario, Canada) were prepared with 100 μL of E. coli, P. aeruginosa, S. aureus, S. pyogenes, or M. smegmatis bacterial suspension (5×10^5 CFU/mL) dispensed into each well of columns 1 through 11. Eleven microliters of the 10×AMP dilution series for all four peptides were added to each well from column 1 (2560 μg/mL) to column 10 (5 μg/mL) in all plates. Column 11 functioned as a positive control for bacterial growth in the absence of AMPs. Column 12 in each plate contained 100 μL of MHB as a sterility control (+5% lysed horse blood for S. pyogenes)^56. […]

[7] = system: Mycobacterium smegmatis (MC^2155); details: Mycobacterium (MC^2155)
Experimental: as §5, §6, §7, §8, §9

[8] = system: Pseudomonas aeruginosa: ATCC 10148; details: ATCC 10148
Experimental: as §5, §6, §7, §8, §9

[9] = system: Staphylococcus aureus: ATCC 6538P; details: ATCC 6538
Experimental: as §5, §6, §7, §8, §9

[10] = system: Streptococcus pyogenes: unknown strain, hospital isolate; details: unknown strain, hospital isolate
Experimental: as §5, §6, §7, §8, §9

Salmonella Enteritidis = system: Salmonella Enteritidis
Description: as §3, §4

| MIC [1] [µg/mL] | MIC [2] [µg/mL] | MIC [3] [µg/mL] | Minimum Inhibitory Concentration (MIC) [1] [µg/mL] | Minimum Inhibitory Concentration (MIC) [2] [µg/mL] | Minimum Inhibitory Concentration (MIC) [4] [µg/mL] | MIC [5] [µg/mL] | Minimum Inhibitory Concentration (MIC) [3] [µg/mL] | MIC [4] [µg/mL] | Structure (SMILES) | MBC [2] [µg/mL] | MBC [3] [µg/mL] | MBC [4] [µg/mL] | also measured |
| --- | --- | --- | --- | --- | --- | --- | --- | --- | --- | --- | --- | --- | --- |
| 128 (≈ 55.5 µM) | 256 (≈ 111 µM) | 128 (≈ 55.5 µM) |  |  |  |  |  |  | CC(C)C[C@H](NC(=O)[C@H](CS)NC(=O)[C@@H]1CCCN1C(=O)[C@H](CCCCN)NC(=O)[C@H](CCCNC(=N)N)NC(=O)[C@@H]1CCCN1C(=O)[C@H](Cc1ccccc1)NC(=O)[C@H](CO)NC(=O)[C@H](CCCCN)NC(=O)[C@@H](NC(=O)[C@H](Cc1c[nH]c2ccccc12)NC(=O)[C@H](CS)NC(=O)CNC(=O)[C@H](CCCNC(=N)N)NC(=O)[C@H](CC(C)C)NC(=O)[C@@H](N)CO)[C@@H](C)O)C(=O)N[C@@H](CCCNC(=N)N)C(=O)N[C@@H](CC(N)=O)C(=O)N[C@@H](CCCNC(=N)N)C(=O)O [HP3_S3R] (H-SLRGCWTKSFPRKPCLRNR-OH; N-terminus and C-terminus assumed) | 256 (≈ 111 µM) |  |  |  |
| 64 (≈ 18.9 µM) |  | 128 (≈ 37.8 µM) | 64 | 64 to 128 | 64 | 256 (≈ 75.7 µM) |  |  | CC[C@H](C)[C@H](NC(=O)CNC(=O)[C@@H](NC(=O)[C@@H](NC(=O)[C@H](CCCCN)NC(=O)CNC(=O)[C@@H](NC(=O)[C@H](CCCCN)NC(=O)[C@H](CCCCN)NC(=O)[C@@H](NC(=O)[C@@H](NC(=O)[C@H](CC(=O)O)NC(=O)[C@H](CC(C)C)NC(=O)[C@H](CC(C)C)NC(=O)CN)[C@@H](C)CC)[C@@H](C)CC)[C@@H](C)O)[C@@H](C)O)[C@@H](C)O)C(=O)N[C@@H](CC(C)C)C(=O)N[C@@H](CCSC)C(=O)N[C@@H](CC(=O)O)C(=O)N[C@H](C(=O)N[C@@H](CC(C)C)C(=O)N[C@@H](CCCCN)C(=O)N[C@@H](CS)C(=O)N[C@@H](CS)C(=O)N[C@@H](CCSC)C(=O)N[C@H](C(=O)NCC(=O)N[C@@H](CCCNC(=N)N)C(=O)N[C@@H](CS)C(=O)N1CCC[C@H]1C(=O)N1CCC[C@H]1C(=O)N[C@@H](CO)C(=O)N[C@@H](CO)C(=O)O)[C@@H](C)O)[C@@H](C)O [P3_CCH_D8K_Q23C] (H-GLLDIIKKTGKTTGILMDTLKCCMTGRCPPSS-OH; N-terminus and C-terminus assumed) |  | 128 (≈ 37.8 µM) |  | MBC [1]: 64 µg/mL (≈ 18.9 µM); Minimum Inhibitory Concentration (MIC) ([3]; CPO E. coli NDM, Gram negative): 128+ ug/mL |
|  | 32 (≈ 9.87 µM) |  | 32 to 64 | 32 | 64 | 256 (≈ 78.9 µM) | 64 to 128 |  | CC[C@H](C)[C@H](NC(=O)[C@H](CCCCN)NC(=O)[C@@H](NC(=O)[C@H](C)NC(=O)[C@H](Cc1ccccc1)NC(=O)[C@H](CC(=O)O)NC(=O)[C@H](CCCCN)NC(=O)CNC(=O)[C@@H](NC(=O)[C@@H](NC(=O)[C@H](CCCCN)NC(=O)[C@@H](NC(=O)[C@@H](NC(=O)[C@H](CC(=O)O)NC(=O)[C@H](CC(C)C)NC(=O)[C@H](CC(C)C)NC(=O)CN)[C@@H](C)CC)[C@@H](C)CC)[C@@H](C)O)[C@@H](C)O)C(C)C)C(=O)N[C@@H](CC(C)C)C(=O)N[C@@H](CC(=O)O)C(=O)N[C@@H](CC(N)=O)C(=O)N[C@@H](CC(C)C)C(=O)N[C@@H](CCCCN)C(=O)N[C@@H](CS)C(=O)N[C@@H](CCCCN)C(=O)N[C@@H](CC(C)C)C(=O)N[C@@H](C)C(=O)NCC(=O)NCC(=O)N[C@@H](CS)C(=O)N1CCC[C@H]1C(=O)N1CCC[C@H]1C(=O)O [Peptide P4_CCH] (H-GLLDIIKTTGKDFAVKILDNLKCKLAGGCPP-OH; N-terminus and C-terminus assumed) | 64 (≈ 19.7 µM) |  |  | MBC [6]: 128 µg/mL (≈ 39.5 µM); MIC [6]: 128 µg/mL (≈ 39.5 µM); MBC [7]: >256 µg/mL; MIC [7]: 8 µg/mL (≈ 2.47 µM); MBC [8]: >256 µg/mL; MIC [8]: >256 µg/mL; MBC [9]: >256 µg/mL; MIC [9]: >256 µg/mL; MBC [10]: 256 µg/mL (≈ 78.9 µM); MIC [10]: 256 µg/mL (≈ 78.9 µM) |
|  |  |  | 16 to 32 | 16 to 32 | 32 | 128 (≈ 39.1 µM) | 32 to 64 | 32 (≈ 9.77 µM) | CC[C@H](C)[C@H](NC(=O)[C@H](CCCCN)NC(=O)[C@@H](NC(=O)[C@H](C)NC(=O)[C@H](Cc1ccccc1)NC(=O)[C@H](CC(=O)O)NC(=O)[C@H](CCCCN)NC(=O)CNC(=O)[C@@H](NC(=O)[C@@H](NC(=O)[C@H](CCCCN)NC(=O)[C@@H](NC(=O)[C@@H](NC(=O)[C@H](CC(=O)O)NC(=O)[C@H](CC(C)C)NC(=O)[C@H](CC(C)C)NC(=O)CN)[C@@H](C)CC)[C@@H](C)CC)[C@@H](C)O)[C@@H](C)O)C(C)C)C(=O)N[C@@H](CC(C)C)C(=O)N[C@@H](CC(=O)O)C(=O)N[C@@H](CC(N)=O)C(=O)N[C@@H](CC(C)C)C(=O)N[C@@H](CCCCN)C(=O)N[C@@H](CS)C(=O)N[C@@H](CCCCN)C(=O)N[C@@H](CC(C)C)C(=O)N[C@@H](C)C(=O)NCC(=O)NCC(=O)N[C@@H](CS)C(=O)N1CCC[C@H]1C(=O)N[C@@H](CCCCN)C(=O)O [Peptide P4_CCH_P31K] (H-GLLDIIKTTGKDFAVKILDNLKCKLAGGCPK-OH; N-terminus and C-terminus assumed) |  |  | 32 (≈ 9.77 µM) | MBC (Salmonella Enteritidis): 256 µg/mL (≈ 78.2 µM); MIC (Salmonella Enteritidis): 256 µg/mL (≈ 78.2 µM); Minimum Inhibitory Concentration (MIC) ([5]; S. enterica spp. Heidelberg, Gram negative): 128+ ug/mL |
|  |  | 128 (≈ 95.8 µM) |  |  |  |  |  | 128 (≈ 95.8 µM) | CC[C@H](C)[C@H](NC(=O)[C@H](C)NC(=O)[C@@H]1CCCN1C(=O)[C@@H](N)Cc1ccccc1)C(=O)N[C@H](C(=O)N[C@@H](CS)C(=O)N[C@@H](CCCCN)C(=O)N[C@H](C(=O)N[C@@H](CO)C(=O)N[C@@H](CCCCN)C(=O)N[C@@H](CCCCN)C(=O)N[C@@H](CS)C(=O)O)C(C)C)[C@@H](C)CC [Peptide P8_CCH_N11K, FPAIICKVSKKC] (H-FPAIICKVSKKC-OH; N-terminus and C-terminus assumed) |  | 128 (≈ 95.8 µM) | 128 (≈ 95.8 µM) |  |
